Experiments:
[1] = biological target: T1, WrbA (NADH:quinone oxidoreductase WrbA; WrbAJW) (Escherichia coli, UniProt P0A8G6); assay: MST (Kd […]); also SPR (Kd […]) and NADH:DCPIP oxidoreductase inhibition (IC50 […]); type: binding
[2] = biological target: T1, WrbA (NADH:quinone oxidoreductase WrbA; WrbAJW); assay: NADH:DCPIP oxidoreductase activity assay of purified WrbAJW; type: biochemical

T1 sequence (P0A8G6 2-198): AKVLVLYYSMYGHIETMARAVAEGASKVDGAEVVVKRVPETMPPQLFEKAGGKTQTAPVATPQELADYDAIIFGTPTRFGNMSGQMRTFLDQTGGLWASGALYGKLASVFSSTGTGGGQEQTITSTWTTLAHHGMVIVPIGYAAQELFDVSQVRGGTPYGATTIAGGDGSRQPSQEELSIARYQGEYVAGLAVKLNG

Compound	Kd [1]	IC50 [2]
O=c1oc2c(O)c(O)cc3c(=O)oc4c(O)c(O)cc1c4c23 [EA, ellagic acid]	0.0015 ± 0.0004 mM	
O=C(O)c1ccccc1O [SA, salicylic acid]		7.85 ± 2.65 mM
